US20040248928A1, “Pharmaceutical composition comprising an adenosine A1/A2 agonist and a sodium hydrogen exchanger inhibitor” (Adventis Pharmaceuticals Inc., priority 2001, published 2004)
Marks after values point to notes of the source that are not given here.

Key:
open-chest rabbit hearts [1] = experiment: Infarct size, 60 min ischemia model (open-chest rabbit, TTC staining); type: in vivo, New Zealand White rabbits; settings: 60 min ischemia + 3 h reperfusion; for Infarct size: (E)=5 min prior to ischemia, (L)=at reperfusion, AMP given at reperfusion, mean ± S.E.M.
Method: New Zealand White rabbits of either sex weighing 2.0-2.5 kg were anesthetized with pentobarbital (30 mg/kg iv), intubated through a tracheotomy, and ventilated with 100% oxygen via a positive pressure respirator (MD industries, Mobile, Ala.). The ventilation rate and tidal volume were adjusted to maintain arterial blood gases in the physiological range. Body temperature was maintained at 38-39° C. A catheter was inserted into the left carotid artery for monitoring blood pressure. Another catheter was inserted into the right jugular vein for drug infusion. A left thoracotomy was performed in the fourth intercostal space, and the pericardium was opened to expose the heart. A 2-0 silk suture on a curved taper needle was passed through the myocardium around a prominent branch of the left coronary artery. The ends of the suture were passed through a small piece of soft vinyl tubing to form a snare. Ischemia was induced by pulling the snare and then fixing it by clamping the tube with a small hemostat. Ischemia was confirmed by appearance of cyanosis. Reperfusion was achieved by releasing the snare and was confirmed by visible hyperemia on the ventricular surface. After 3 h of reperfusion, the rabbit was given an overdose of pentobarbital and the heart was quickly removed from the chest, mounted on a Langendorff apparatus, and perfused with saline to wash out blood. Then the coronary artery was reoccluded, and 1 ml of 0.25% fluorescent polymer microspheres (2-9 μm diameter, Duke Scientific Corp, Palo Alto, Calif.) were infused into the perfusate to demarcate the risk zone as the area of tissue without fluorescence. The heart was weighed, frozen, and cut into 2.5-mm-thick slices. The slices were incubated in 1% triphenyltetrazolium chloride (TTC) in sodium phosphate buffer at 37° C. for 20 min. The slices were immersed in 10% formalin to enhance the contrast between stained (viable) and unstained (necrotic) tissue and then squeezed between glass plates spaced exactly 2 mm apart. The myocardium at risk was identified by illuminating the slices with ultraviolet light. The infarcted and risk zone areas were traced on a clear acetate sheet and quantified with planimetry by an investigator blinded to the treatment. The areas were converted into volumes by multiplying the areas by slice thickness. Infarct size is expressed as a percentage of the risk zone. Pretreatment with cariporide was so potent that any additional protection would probably be undetectable with a 45-minute ischemic insult. We therefore chose a 60 min period of index ischemia for these studies. […] All data are expressed as means±S.E.M. One-way ANOVA combined with Scheffé's post hoc test was used to test for differences in baseline hemodynamics and infarct size among groups. […]

open-chest rabbit hearts [2] = experiment: Infarct size, 45 min ischemia model (open-chest rabbit, TTC staining); type: in vivo, New Zealand White rabbits; settings: 45 min ischemia + 3 h reperfusion; for Infarct size: (E)=5 min prior to ischemia, (L)=at reperfusion, (E&L)=from 5 min prior to ischemia for 120 min, mean ± S.E.M.; for Infarct size as a percentage of the risk zone: control 55.8±3.9%
Method: New Zealand White rabbits of either sex weighing 2.0-2.5 kg were anesthetized with pentobarbital (30 mg/kg iv), intubated through a tracheotomy, and ventilated with 100% oxygen via a positive pressure respirator (MD industries, Mobile, Ala.). The ventilation rate and tidal volume were adjusted to maintain arterial blood gases in the physiological range. Body temperature was maintained at 38-39° C. A catheter was inserted into the left carotid artery for monitoring blood pressure. Another catheter was inserted into the right jugular vein for drug infusion. A left thoracotomy was performed in the fourth intercostal space, and the pericardium was opened to expose the heart. A 2-0 silk suture on a curved taper needle was passed through the myocardium around a prominent branch of the left coronary artery. The ends of the suture were passed through a small piece of soft vinyl tubing to form a snare. Ischemia was induced by pulling the snare and then fixing it by clamping the tube with a small hemostat. Ischemia was confirmed by appearance of cyanosis. Reperfusion was achieved by releasing the snare and was confirmed by visible hyperemia on the ventricular surface. After 3 h of reperfusion, the rabbit was given an overdose of pentobarbital and the heart was quickly removed from the chest, mounted on a Langendorff apparatus, and perfused with saline to wash out blood. Then the coronary artery was reoccluded, and 1 ml of 0.25% fluorescent polymer microspheres (2-9 μm diameter, Duke Scientific Corp, Palo Alto, Calif.) were infused into the perfusate to demarcate the risk zone as the area of tissue without fluorescence. The heart was weighed, frozen, and cut into 2.5-mm-thick slices. The slices were incubated in 1% triphenyltetrazolium chloride (TTC) in sodium phosphate buffer at 37° C. for 20 min. The slices were immersed in 10% formalin to enhance the contrast between stained (viable) and unstained (necrotic) tissue and then squeezed between glass plates spaced exactly 2 mm apart. The myocardium at risk was identified by illuminating the slices with ultraviolet light. The infarcted and risk zone areas were traced on a clear acetate sheet and quantified with planimetry by an investigator blinded to the treatment. The areas were converted into volumes by multiplying the areas by slice thickness. Infarct size is expressed as a percentage of the risk zone. Seven groups of rabbits were subjected to 45 min of regional ischemia followed by 3 h of reperfusion (FIG. 1). The PC was induced by a 5 min of regional ischemia followed by a 10 min reperfusion prior to the sustained ischemia. All groups receiving AMP 579 received a bolus injection of 30 μg/kg iv followed by an infusion of 3 μg/kg/min for 70 min. In PC+AMP (L) group, the hearts experienced PC and were treated with AMP 579 at reperfusion for 70 min. AMP 579 alone was given at reperfusion for 70 min in AMP (L) group. The hearts in AMP (E&L) group were treated with AMP 579 starting 5 min before ischemia for 120 min. An intravenous bolus injection of cariporide was given either 5 min prior to ischemia (Cariporide (E)) or 5 min before reperfusion (Cariporide (L)). All data are expressed as means±S.E.M. One-way ANOVA combined with Scheffé's post hoc test was used to test for differences in baseline hemodynamics and infarct size among groups. ANOVA with replication was used to test for changes in hemodynamics during an experiment within each group. A p value of less than 0.05 was considered to be significant.

CCNC(=O)[C@H]1CC(n2cnc3c(N[C@H](CC)Cc4sccc4Cl)ccnc32)[C@H](O)[C@@H]1O (relative stereo) [AMP 579, [1S-[1α,2β,3β,4α(S*)]]-4-[7-[[3-chloro-2-thienyl)methyl]propyl]amino]-3H-imidazo[4,5-b]pyridin-3-yl]-N-ethyl-2,3-dihydroxycyclopentanecarboxamide]
Infarct size (open-chest rabbit hearts [1]): 0.59 ± 0.09 cm^3 | Infarct size as a percentage of the risk zone (open-chest rabbit hearts [1]; AMP 579 alone at reperfusion (30 μg/kg + 3 μg/kg/min, 70 min), not significant vs control 66.0±4.9%): 45.3±5.4% | Infarct size (open-chest rabbit hearts [2]; listed as AMP (E&L)): 0.26 ± 0.05* cm^3 | Infarct size (open-chest rabbit hearts [2]; listed as AMP (L)): 0.37 ± 0.03* cm^3 | Infarct size as a percentage of the risk zone (open-chest rabbit hearts [2]; AMP 579 alone, 30 μg/kg iv bolus + 3 μg/kg/min for 70 min starting at reperfusion): 32.1±1.8%

CC(C)c1ccc(C(=O)N=C(N)N)cc1S(C)(=O)=O [Cariporide, 4-isopropyl-3-methylsulfonylbenzoylguanidine methane sulfonate]
Infarct size (open-chest rabbit hearts [1]): 0.47 ± 0.08* cm^3 | Infarct size as a percentage of the risk zone (open-chest rabbit hearts [1]; cariporide 0.5 mg/kg bolus 5 min prior to ischemia, control 66.0±4.9%): 41.5±7.7% | Infarct size (open-chest rabbit hearts [2]; listed as Cariporide (E)): 0.13 ± 0.07* cm^3 | Infarct size (open-chest rabbit hearts [2]; listed as Cariporide (L)): 0.60 ± 0.08 cm^3 | Infarct size as a percentage of the risk zone (open-chest rabbit hearts [2]; cariporide iv bolus 5 min prior to ischemia (pretreatment)): 8.5±3.7% | Infarct size as a percentage of the risk zone (open-chest rabbit hearts [2]; cariporide iv bolus just prior to reperfusion): 53.4±3.5%
